Experiments:
Type in all cases: in vivo
[1] = tested on: cowpea aphid (aphis craccivora); test: Activity against cowpea aphid
Experimental: 10. Activity against cowpea aphid (aphis craccivora)
The active compounds were formulated in 50:50 acetone:water. Potted cowpea plants colonized with 100-150 aphids of various stages were sprayed after the pest population has been recorded. Population reduction was recorded after 24, 72, and 120 hours.

[2] = tested on: brown planthopper (nilaparvata lugens); test: Activity against brown planthopper; conditions: rice seedlings sprayed, recorded after 24, 72 and 120 hours
Experimental: 9. Activity against brown planthopper (nilaparvata lugens)
The active compounds were formulated in 50:50 acetone:water. Potted rice seedlings were sprayed with 10 ml test solution, air dried, placed in cages and inoculated with 10 adults. Percent mortality was recorded after 24, 72 and 120 hours.

[3] = tested on: Colorado Potato Beetle; test: Pesticidal action of synergistic mixtures, leaf dip bioassay on potato leaves; conditions: Leptinotarsa decemlineata, foliar, 120 h
From the text: (§1) 12. Pesticidal action of synergistic mixtures of compounds of formula I
(§2) Potato plants for Colorado potato beetle and two-leaf cotton plants for tobacco budworm were utilized for bioassays. Excised plant leaves were dipped into 1:1 acetone/water dilutions of the active compounds. After the leaves had dried, they were individually placed onto water-moistened filter paper on the bottoms of Petri dishes. Each dish was infested with 5-7 larvae and covered with a lid. Each treatment dilution was replicated 4 times. Test dishes were held at approximately 27° C. and 60% humidity. Numbers of live and morbid larvae were assessed in each dish at 5 days after treatment application, and percent mortality was calculated.
(§3) To determine if an insecticidal mixture was synergistic, Limpel's formula was used: E=X+Y−XY/100 • E=Expected % mortality of the mixture • X=% mortality of compound X, as measured independently • Y=% mortality of compound Y, as measured independently
(§4) Synergism was evident if the % observed mortality for the mixture was greater than the % expected mortality.

[4] = tested on: cotton aphid (aphis gossypii); test: Activity against cotton aphid; conditions: 120 h, cotton cotyledons dipped, after 5 days
From the text: 5. Activity against cotton aphid (aphis gossypii)
(§5) The active compounds were formulated in 50:50 acetone:water and 100 ppm Kinetic™ surfactant.
Cotton plants at the cotyledon stage (one plant per pot) were infested by placing a heavily infested leaf from the main colony on top of each cotyledon. The aphids were allowed to transfer to the host plant overnight, and the leaf used to transfer the aphids was removed. The cotyledons were dipped in the test solution and allowed to dry. After 5 days, mortality counts were made.

[5] = tested on: diamond back moth (plutella xylostella); test: Activity against diamond back moth; conditions: in Brassica oleracea, foliar, 72 h
Experimental: 11. Activity against diamond back moth (plutella xylostella)
The active compounds were formulated in 50:50 acetone:water and 0.1% (vol/vol) Alkamuls EL 620 surfactant. A 6 cm leaf disk of cabbage leaves was dipped in the test solution for 3 seconds and allowed to air dry in a Petri plate lined with moist filter paper. The leaf disk was inoculated with 10 third instar larvae and kept at 25-27° C. and 50-60% humidity for 3 days. Mortality was assessed after 72 h of treatment.

[6] = tested on: green peach aphid (Myzus persicae); test: Activity against green peach aphid; conditions: 120 h, pepper leaves dipped, after 5 days, relative to check plants
From the text: 6. Activity against green peach aphid (Myzus persicae)
as §5
Pepper plants in the 2nd leaf-pair stage (variety ‘California Wonder’) were infested with approximately 40 laboratory-reared aphids by placing infested leaf sections on top of the test plants. The leaf sections were removed after 24 hr. The leaves of the intact plants were dipped into gradient solutions of the test compound and allowed to dry. Test plants were maintained under fluorescent light (24 hour photoperiod) at about 25° C. and 20-40% relative humidity. Aphid mortality on the treated plants, relative to mortality on check plants, was determined after 5 days.

[7] = tested on: Tobacco Budworm; test: Pesticidal action of synergistic mixtures, leaf dip bioassay on cotton leaves; conditions: Heliothis virescens, foliar, 120 h
From the text: as §1, §2, §3, §4

[8] = tested on: carpenter ant (Camponotus floridanus); test: Activity via soil contact; conditions: 24 h, read-out: mortality of Camponotus floridanus
Experimental: (§6) 2. Activity against Argentine ant (Linepithema humile), acrobat ant (Crematogaster spp.), carpenter ant (Camponotus floridanus), fire ant (Solenopsis invicta), and eastern subterranean termite (Reticulitermes flavipes) via soil contact
For ants, tests were conducted in Petri dishes. A thin layer of 1% agar in water was dispensed into the dishes and Florida sandy soil was spread over the agar. The active ingredient was dissolved in acetone and dispensed over the sand. Dishes were vented to evaporate the acetone, infested with ants, and covered. A 20% honey water solution was placed in each dish. The dishes were maintained at 22° C. and observed for mortality at various time intervals.

[9] = tested on: silverleaf whitefly (bemisia argentifolii); test: Activity against silverleaf whitefly; conditions: in Gossypium hirsutum, 72 h
Experimental: 8. Activity against silverleaf whitefly (bemisia argentifolii)
as §5
Selected cotton plants were grown to the cotyledon state (one plant per pot). The cotyledons were dipped into the test solution to provide complete coverage of the foliage and placed in a well-vented area to dry. Each pot with treated seedling was placed in a plastic cup and 10 to 12 whitefly adults (approximately 3-5 day old) were introduced. The insects were colleted using an aspirator and an 0.6 cm, non-toxic Tygon® tubing (R-3603) connected to a barrier pipette tip. The tip, containing the collected insects, was then gently inserted into the soil containing the treated plant, allowing insects to crawl out of the tip to reach the foliage for feeding. The cups were covered with a reusable screened lid (150 micron mesh polyester screen PeCap from Tetko Inc). Test plants were maintained in the holding room at about 25° C. and 20-40% relative humidity for 3 days avoiding direct exposure to the fluorescent light (24 hour photoperiod) to prevent trapping of heat inside the cup. Mortality was assessed 3 days after treatment of the plants.

[10] = tested on: house fly (Musca domestica); test: Activity via glass contact; conditions: rate of 5 ppm, 24 hours after treatment
From the text: (§7) 1. Activity against Argentine ant (Linepithema humile), harvester ant (Pogonomyrmex californicus), acrobat ant (Crematogaster spp.), carpenter ant (Camponotus floridanus), fire ant (Solenopsis invicta), house fly (Musca domestica), stable fly (Stomoxys calcitrans), flesh fly (Sarcophaga sp.), yellowfever mosquito (Aedes aegyptil), house mosquito (Culex quinquefasciatus), malaria mosquito (Anopheles albimanus), German cockroach (Blattella Germanica), cat flea (Ctenocephalides felis), and brown dog tick (Rhipicephalus sanguineus) via glass contact
(§8) Glass vials were treated with 0.5 ml of a solution of active ingredient in acetone and allowed to dry. Insects or ticks were placed into each vial together with some food and moisture supply.

[11] = tested on: acrobat ant (Crematogaster spp.); test: Activity via glass contact; conditions: rate of 10 ppm, 24 hours after treatment
From the text: as §7, §8

[12] = tested on: yellowfever mosquito (Aedes aegypti); test: Activity via glass contact; conditions: rate of 0.1 ppm, 24 hours after treatment
From the text: as §7, §8

[13] = tested on: German cockroach (Blattella Germanica); test: Activity via glass contact; conditions: rate of 5 ppm, 24 hours after treatment
From the text: as §7, §8

[14] = tested on: eastern subterranean termite (Reticulitermes flavipes); test: Activity via soil contact; conditions: rate of 1 weight %, 3 days after treatment
Experimental: as §6
For termites, a thin layer of 1% agar was dispensed into Petri dishes. A thin layer of pre-treated soil was spread over the agar. For soil treatment, the active ingredient was diluted in acetone on a weight-to-weight basis and incorporated into the soil. Termite workers were introduced into each dish. Filter paper served as a food source. Test dishes were held at about 25° C. Termites were observed daily for mortality (dead or unable to stand upright and showing only weak movement).

[15] = tested on: bean aphid (aphis fabae); test: Activity against bean aphid; conditions: 72 h
From the text: 7. Activity against bean aphid (aphis fabae)
as §5
Nasturtium plants grown in Metro mix in the 1st leaf-pair stage (variety ‘Mixed Jewle’) were infested with approximately 2-30 laboratory-reared aphids by placing infested cut plants on top of the test plants. The cut plants were removed after 24 hr. Each plant was dipped into the test solution to provide complete coverage of the foliage, stem, protruding seed surface and surrounding cube surface and allowed to dry in the fume hood. The treated plants were kept at about 25° C. with continuous fluorescent light. Aphid mortality was determined after 3 days.

[16] = tested on: eastern subterranean termite (Reticulitermes flavipes); test: Activity via bait; conditions: rate of 0.005 weight %; three days after treatment; bait (treated filter paper)
Experimental: 3. Activity against Argentine ant (Linepithema humile), acrobat ant (Crematogaster spp.), carpenter ant (Camponotus floridanus), fire ant (Solenopsis invicta), house fly (Musca domestica), eastern subterranean termite (Reticulitermes flavipes), Formosan subterranean termite (Coptotermes formosanus), and German cockroach (Blattella Germanica) via bait
For termites, active ingredient in acetone was applied to filter papers. % a.i. were calculated on basis of the weight of the filter paper. Bioassays were conducted with one treated filter and ca. 30 termite workers per test Petri dish. Test dishes were maintained at 25° C. and observed daily for mortality (dead or moribund insects) or intoxication.

[17] = dose rate 100 ppm, 5 days after treatment
[18] = read-out: % Mortality of Tobacco Budworm

SMILES | mortality at 300 ppm [1] | mortality at 300 ppm [2] | mortality at 100 ppm [3, 17] | mortality at 300 ppm [4] | mortality at 300 ppm [5] | mortality at 300 ppm [6] | mortality at 100 ppm [7, 17] | mortality at 300 ppm ([7]; dose rate 300 ppm, 5 days after treatment) | mortality at 10 ppm [8] | mortality at 300 ppm [9] | mortality at 5 ppm [10] | mortality of Crematogaster spp. [11] | mortality at 0.1 ppm [12] | mortality at 5 ppm [13] | mortality of Reticulitermes flavipes [14] | mortality at 300 ppm [15] | mortality of Reticulitermes flavipes [16] | mortality at 0.06 ppm ([3]; read-out: % Mortality of Colorado Potato Beetle) | mortality at 0.03 ppm [7, 18] | mortality at 0.06 ppm [7, 18]
Cc1nc(C2CC2(Cl)Cl)nn1-c1c(Cl)cc(C(F)(F)F)cc1Cl (stereo not shown) [I-2, 1-(2,6-dichloro-4-trifluoromethylphenyl)-3-(2,2-dichlorocyclopropyl)-5-methyl-1,2,4-triazole] | 100% | 100% |  |  |  |  |  |  |  |  |  |  |  |  |  |  |  |  |  | 
Cc1nc(C2(C)CC2(Cl)Cl)nn1-c1c(Cl)cc(C(F)(F)F)cc1Cl (stereo not shown) [I-3, 3-(2,2-Dichloro-1-methyl-cyclopropyl)-1-(2,6-dichloro-4-trifluoromethyl-phenyl)-5-methyl-1H-[1,2,4]triazole] | 100% | 100% | 12.5% | 100% | 100% | 100% | 0% | 71.4% | 100% | 100% | 100% | 100% | 100% | 100% | 100% | 100% | 100% |  |  | 
CC1(C)C(C=C(Cl)Cl)C1C(=O)OC(C#N)c1cccc(Oc2ccccc2)c1 (stereo not drawn) [alpha-cypermethrin, reference compound] |  |  |  |  |  |  |  |  |  |  |  |  |  |  |  |  |  | 17.5% | 0% | 7.2%
